The nature of data set [1]: Solubility of the compound in phosphate buffered saline under acidic condition. The data set is classed as physicochemical. Conditions: buffer.
Data set [2] in a line: Intrinsic clearance in human liver microsomes at 1 uM after 60 mins by LC-MS/MS analysis. Type of data set: ADME. Conditions: read-out: CLH.
Data set [3] can be described thus: Half life in mouse liver microsomes at 1 uM after 60 mins by LC-MS/MS analysis. Type of data set: ADME, Microsome. For orientation: Liver microsomes are vesicles of endoplasmic reticulum, rich in cytochrome P450 enzymes.
Data set [4] has as its system Mus musculus. Description: Toxicity in Swiss mouse assessed as whole body tremor at 4 to 8 mg/kg measured up to 15 mins post compound administration. Conditions: in vivo, 0.25 h. Type of data set: organism-based. Also on record: dose 4-8 mg/kg.
In data set [5] the test system is Mus musculus. Description: Toxicity in Swiss mouse assessed as panting at 4 to 8 mg/kg measured up to 15 mins post compound administration. The data set is classed as organism-based. Details: dose 4-8 mg/kg. The note with it: in vivo, 0.25 h.
Data set [6] in a line: Selectivity ratio of IC50 for chloroquine-sensitive Plasmodium falciparum 3D7 to IC50 for chloroquine and mefloquine-resistant Plasmodium falciparum Dd2. The data set is classed as functional.
Data set [7] deals with Plasmodium falciparum. Put plainly: Antimalarial activity against chloroquine-sensitive Plasmodium falciparum 3D7 assessed as [3H]-hypoxanthine incorporation after 48 hrs by liquid scintillation counting analysis. Type of data set: functional, organism-based.
The nature of data set [8]: Selectivity index, ratio of IC50 for human NFF to IC50 for chloroquine and mefloquine-resistant Plasmodium falciparum Dd2.
The next data set concerns NFF. Description: Cytotoxicity against human NFF after 72 hrs by SRB assay. The data set is classed as cell-based. For orientation: Sulforhodamine B stains cellular protein and so reports cell mass.
Data set [9] can be described thus: Selectivity index, ratio of IC50 for human NFF to IC50 for chloroquine-sensitive Plasmodium falciparum 3D7.
Data set [10] is described as follows: Intrinsic clearance in mouse liver microsomes at 1 uM after 60 mins by LC-MS/MS analysis. The data set is classed as ADME, Microsome. The note with it: read-out: CLH.
For data set [11], the system named is Plasmodium falciparum. Description: Antimalarial activity against chloroquine and mefloquine-resistant Plasmodium falciparum Dd2 assessed as [3H]-hypoxanthine incorporation after 48 hrs by liquid scintillation counting analysis. The data set is classed as functional.
The nature of data set [12]: Solubility of the compound in phosphate buffered saline under neutral condition. The data set is classed as physicochemical. The note with it: buffer.
Data set [13] in a line: Half life in human liver microsomes at 1 uM after 60 mins by LC-MS/MS analysis. Type of data set: ADME.
Data set [14] deals with Mus musculus. Put plainly: Toxicity in Swiss mouse assessed as whole body tremor at 8 mg/kg administered for 4 days measured after 1 to 2 hrs of each dose. The data set is classed as organism-based. Details: dose 8 mg/kg. Conditions: in vivo.
Data set [15] relates to Mus musculus. Put plainly: Toxicity in Swiss mouse assessed as lethargy at 16 mg/kg measured up to 2 hrs post compound administration. The note with it: in vivo. Also on record: dose 16 mg/kg. Type of data set: organism-based.
In data set [16] the test system is Mus musculus. Put plainly: Toxicity in Swiss mouse assessed as ruffled coat at 16 mg/kg measured up to 2 hrs post compound administration. Type of data set: organism-based. Also on record: dose 16 mg/kg. The note with it: in vivo.
Data set [17] has as its system Mus musculus. Put plainly: Toxicity in Swiss mouse assessed as whole body tremor at 16 mg/kg measured up to 2 hrs post compound administration. Also on record: dose 16 mg/kg. Type of data set: organism-based. Conditions: in vivo.
Data set [18] deals with Mus musculus. Description: Toxicity in Swiss mouse assessed as ruffled coat at 8 mg/kg administered for 4 days. The data set is classed as organism-based. Also on record: dose 8 mg/kg. The note with it: in vivo, 96 h.
For data set [19], the system named is Plasmodium falciparum. Description: Antimalarial activity against chloroquine and mefloquine-resistant Plasmodium falciparum Dd2 assessed as growth inhibition. Type of data set: functional.
The test system of data set [20] is Plasmodium falciparum. Put plainly: Antimalarial activity against chloroquine-sensitive Plasmodium falciparum 3D7 assessed as growth inhibition. The data set is classed as functional, organism-based.
Data set [21] concerns Mus musculus. Description: Toxicity in Swiss mouse assessed as orange urine at 4 to 8 mg/kg. The data set is classed as organism-based. Also on record: dose 4-8 mg/kg. The note with it: in vivo.
For data set [22], the system named is Mus musculus. Description: Toxicity in Swiss mouse assessed as whole body tremor at 4 to 8 mg/kg. The data set is classed as organism-based. Details: dose 4-8 mg/kg. Conditions: in vivo.
The subject of data set [23] is Mus musculus. Description: Toxicity in Swiss mouse assessed as swollen conjuctiva of eyes at 4 to 8 mg/kg. Details: dose 4-8 mg/kg. The data set is classed as organism-based. Conditions: in vivo.
Data set [24] has as its system Mus musculus. Put plainly: Toxicity in Swiss mouse assessed as difficulty in movement at 4 to 8 mg/kg. The data set is classed as organism-based. Also on record: dose 4-8 mg/kg. Conditions: in vivo.

Take `Cl.Cn1cc(CCN)c2c1C(=O)C1=C(C2=O)S(=O)(=O)C=CN1`: the solubility result in data set [1] and in data set [12] was “soluble” each time. Besides, the microsomal CLint at 1 µM in data set [2] and in data set [10] was < 7 µL/min/mg each time. Besides, the half-life at 1 µM in [3] and in data set [13] was > 4.17 h each time. Also, the Activity result in the data set with Mus musculus [4] and in the data set with Mus musculus [5] was “Toxic” in each case. Also, the Ratio IC50 in data set [6] was determined as 1.7; in data set [8], 40; in data set [9] it was 18. Also, the IC50 in the data set on Plasmodium falciparum [7] turned out to be 128 nM; in the data set on NFF, 2310 nM; in the data set on Plasmodium falciparum [11], 57 nM.

In the case of `Cl.NCCc1c[nH]c2c1C(=O)C1=C(NC=CS1(=O)=O)C2=O`, the solubility entry in data set [1] and in data set [12] was “soluble” each time. For the same compound, the microsomal CLint at 1 µM was 46 µL/min/mg in [2] and 68 µL/min/mg in data set [10]. Also, the half-life at 1 µM turned out to be 0.417 h in [3] and 0.617 h in data set [13]. The figures for the Ratio IC50 in data set [6], in [8] and in data set [9] were 4.3, 60 and 14, respectively. Moreover, the Activity entry in the data set with Mus musculus [14], with Mus musculus [15], with Mus musculus [16], in the data set with Mus musculus [17] and in the data set with Mus musculus [18] was “Toxic” in each case. The IC50 in the data set with Plasmodium falciparum [7] worked out at 104 nM; in the data set on NFF, 1500 nM; in the data set with Plasmodium falciparum [11] it was 24 nM; with Plasmodium falciparum [19], 6.6 nM; with Plasmodium falciparum [20] it was 51 nM.

`CCN(CC)CCCC(C)Nc1ccnc2cc(Cl)ccc12` (configuration not stated) [CHLOROQUINE] gave an IC50 in the data set on NFF of 45900 nM.

On to `CNCCc1cn(C)c2c1C(=O)C1=C(NC=CS1(=O)=O)C2=O.Cl`, for which the solubility result in data set [1] and in data set [12] was “soluble” throughout. In addition, the microsomal CLint at 1 µM in data set [2] and in [10] was < 7 µL/min/mg throughout. In addition, the half-life at 1 µM in data set [3] and in data set [13] was > 4.17 h throughout. Besides, the Activity entry in the data set with Mus musculus [21], in the data set on Mus musculus [22], with Mus musculus [23] and with Mus musculus [24] was “Toxic” each time. Further, the Ratio IC50 in data set [6] was determined as 1.7; in data set [8], 29; in data set [9], 17. In addition, the results for the IC50 with Plasmodium falciparum [7], in the data set with NFF and in the data set on Plasmodium falciparum [11] were 137 nM, 2310 nM and 79 nM, respectively.

For the compound `CNCCc1c[nH]c2c1C(=O)C1=C(NC=CS1(=O)=O)C2=O.Cl`, the solubility entry in data set [1] and in [12] was “soluble” in each case. Further, the microsomal CLint at 1 µM in data set [2] stood at 17 µL/min/mg; in [10] it was 11 µL/min/mg. Also, the half-life at 1 µM stood at 2.52 h in data set [3] and 1.67 h in [13]. Moreover, the Ratio IC50 in data set [6] amounted to 3.4; in data set [8], 31; in data set [9], 9. For the same compound, the IC50 in the data set on Plasmodium falciparum [7] is 160 nM; with NFF, 1480 nM; with Plasmodium falciparum [11], 47 nM.

As for `Cn1cc(CCN)c2c1C(=O)C1=C(NC=CS1(=O)=O)C2=O`, the values for the concentration for half-maximal inhibition (IC50) with Plasmodium falciparum [7], with NFF and with Plasmodium falciparum [11] were 416 nM, 13200 nM and 162 nM, respectively. Further, the Ratio IC50 was 81 in data set [8] and 32 in [9].

The half-life is the time needed for the level to fall by half in the phase considered. Read a high half-life as slow decline. One may read the IC50 as the concentration that gives 50% inhibition.

The values above are taken from ChEMBL document CHEMBL3112478, “Total synthesis of thiaplakortone a: derivatives as metabolically stable leads for the treatment of malaria” (ACS Med Chem Lett, 2014).
